Laboratory results from patent US5506207A, “GNRH antagonists XIII” (The Salk Institute for Biological Studies, priority 1994, dated 1996).
“Also recorded” adds a separate entry of the source. Square brackets hold non-standard residues; d marks the D form. Peptide text beside a SMILES is read from it. * marks the point of attachment. dPhe(4-NH2) = Nc1ccc(C[C@@H](N)C(=O)O)cc1; dPhe(4-Cl) = N[C@H](Cc1ccc(Cl)cc1)C(=O)O; Phe(4-NH2) = Nc1ccc(C[C@H](N)C(=O)O)cc1; d2Nal = N[C@H](Cc1ccc2ccccc2c1)C(=O)O; Lys(iPr) = CC(C)NCCCC[C@H](N)C(=O)O; d3Pal = N[C@H](Cc1cccnc1)C(=O)O; X1 = Nc1n[nH]c(NCC(=O)*)n1

What was measured:
[1] = tested on: mature female Sprague-Dawley rats; test: examination of treated rats for tolerance and gelling at the point of injection; type: in vivo, rat; details: rats injected with peptide in bacteriostatic water
[2] = solubility in aqueous buffers; type: physicochemical; details: pH from about 5 to about 7

For CC(=O)N[C@H](Cc1ccc2ccccc2c1)C(=O)N[C@H](Cc1ccc(Cl)cc1)C(=O)N[C@H](Cc1cccnc1)C(=O)N[C@@H](CO)C(=O)N[C@@H](Cc1ccc(NC(=O)CNc2nc(N)n[nH]2)cc1)C(=O)N[C@H](Cc1ccc(NC(=O)CNc2nc(N)n[nH]2)cc1)C(=O)N[C@@H](CC(C)C)C(=O)N[C@@H](CCCCNC(C)C)C(=O)N1CCC[C@H]1C(=O)N[C@H](C)C(N)=O [Peptide No. 1, [Ac-β-D-2NAL^1, (4Cl)D-Phe^2, D-3PAL^3, Aph(Gly)(atz)^5, D-Aph(Gly)(atz)^6, ILys^8, D-Ala^10]-GnRH] (Ac-[d2Nal][dPhe(4-Cl)][d3Pal]S[Phe(4-NH2)](X1)[dPhe(4-NH2)](X1)L[Lys(iPr)]P[dA]-NH2), the “tolerance and gelling at the point of injection” value [1] was “very well tolerated with no significant gelling at the point of injection being detectable; also recorded: resistance to in vivo gelling” and the “solubility in aqueous buffers” value [2] was “solubility in aqueous buffers at a pH of from about 5 to about 7”.
